# Measured values as given in paper PMC12876990, “Targeting secreted PLA2 interactions with EGFR and vimentin to arrest prostate tumour growth” (Cell Death & Disease, 2025).
# Square brackets hold non-standard residues; d marks the D form. Peptide text beside a SMILES is read from it. 2Nal = N[C@@H](Cc1ccc2ccccc2c1)C(=O)O
# Tests used:
# [1] = 28-day oral toxicity study: daily clinical observations; assay type: in vivo, male Sprague Dawley rats; design: key to Clinical observations: NC A, no clinical abnormalities
# Procedure: 3.6. Procedure for test item administration […]
# intragastric cannula attached to a 3 mL syringe.
# 3.7. Observation of animals […]
# groups: Day 29; recovery groups: Day 43).
# (Appendix C Study Data Spreadsheets). […]
# report (Appendix C Study Data Spreadsheets).
# 3.7.3. Clinical observations […]
# groups and on the day of sa crifice. […]
# and abnormal behaviour. Skin and fur, eyes and mucous membranes, respiratory, […]
# patterns were monitored. Particular attention was paid to observation of tremor, convulsion, salivation, diarrhoea, lethargy, sleep and coma.
# 3.7.4. Detailed clinical examinations […]
# the report (Appendix C Study Data Spreadsheets). […]
# [2] = 28-day oral toxicity study: urinalysis; assay type: in vivo, male Sprague Dawley rats
# Excerpt: Haematology and Biochemistry).
# Urine was collected at the end of the study (on Days 29 and 43 for main and recovery groups, respectively) by placing a urine collection tube at the opening of the urethra and any urine expressed by the animal wa s collected. If no urine came out, pressure was gently applied on the bladder area of the abdomen.
# Urine was also collected by bladder puncture at the time of death to maximise the volume collected. The animal was placed in lateral recumbency and the abdominal cavity opened. A needle attached to the syringe w as in serted int o the bladder and urine withdrawn with the plunger. The urine sample was expelled from the syringe into the collection tube.
# The urine samples were an alysed, individual re su lts are pres ented a s an appendix to the report (Appendix C Study Data Spreadsheets). […]
# [3] = target: T1, hGIIA/vimentin interaction (Homo sapiens, UniProt P08670); assay: Enzyme immunoassay of hGIIA binding to vimentin coil 2; settings: in vitro; read-out: IC50, inhibition of the interaction between hGIIA and vimentin
# T1 construct: Purified vimentin fragments (full length or coil 2) were seeded to a 96-well microplate at 15 μg/mL; hGIIA purified in house from conditioned medium of CHO cell line 2B1
# Procedure: Prior to assay, hGIIA antibody 4A1 was conjugated to alkaline phosphatase (4A1-AP), produced using the lightning-link conjugation kit (ab102850, Abcam) as per the manufacturer’s instructions.
# Purified vimentin fragments (full length or coil 2) were seeded to a 96-well microplate at 15 μg/mL with a 100 μL/well volume. After an overnight incubation at 4 °C, the plate was emptied. Each well was then blocked overnight at 4 °C with 200 μL of 1% BSA in PBS. The plate was emptied and washed with PBST (PBS + 0.05% Tween20). hGIIA solution of 100 ng/mL in PBS with 0.1% BSA was prepared with and without inhibitors c2, Withaferin A and LY311727 in DMSO with concentrations 0.1-100 µM. hGIIA working solution with 0.4% DMSO served as a positive control and PBS with 0.1% BSA served as a negative control. A 100 μL volume of each prepared hGIIA-inhibitor mixture was added to wells in triplicate and incubated at 37 °C for two hours. The plate was washed twice with PBST, then incubated with the 4A1-AP conjugate at 1 μg/mL 0.1% BSA in PBS and incubated for one hour at 37 °C. Plates were then emptied and washed three times with PBST, followed by washing twice with carbonate buffer (8 mM Na2CO3, 36 mM NaHCO3, 2 mM MgCl2, pH 9.8), before incubation with AP substrate p-nitro-phenyl phosphate (PNPP) powder at 1 mg/mL concentration in carbonate buffer. The plate was incubated at 37 °C for 60 mins then absorbance was read at 405 nm by a Spectramax M2 plate reader. All washes were a 200 µL/well volume.
# [4] = test system: PCa cell lines LNCaP, PC-3 and DU145; assay: Cell permeability of c2 by live cell confocal imaging of its autofluorescence; assay type: cell-based; settings: 100 µM, 24 hours
# Procedure: The naphthyl groups in the structure of c2 give the compound a unique autofluorescence emission spectral signature, which was characterised (Fig. S3a, b), allowing the direct imaging of c2 internalisation and localisation. […] Internalisation confirmed via z-stack (Fig. S3c).
# For all live cell imaging, cells were seeded on a 24-well glass-bottom Senso plates (Greiner Bio-one) and imaged at 37 °C and 5% CO2 with the LSM 800 (Zeiss). For c2 imaging, cells were incubated with c2 100 µM for 24 hours before excitation with 488 nm and emission 500-700 nm detected. For hGIIA entry, PC-3, LNCaP, DU145 and RA57 hGIIA/AF647 in cells were stained with 30 nM DAPI for 10 mins, cells were washed with PBS and then stained with 1 μg/mL of propidium iodide for 10 mins to confirm cell viability. Cells were washed three times with PBS and then cells were incubated with 200 ng/mL hGIIA/AF647, with entry imaged over 16 hours. Imaging parameters were kept consistent across all time points and cell lines.
# [5] = Day 43, Gr 5 recovery, 20 mg/kg
# T1 sequence (P08670 269-407 limits assumed): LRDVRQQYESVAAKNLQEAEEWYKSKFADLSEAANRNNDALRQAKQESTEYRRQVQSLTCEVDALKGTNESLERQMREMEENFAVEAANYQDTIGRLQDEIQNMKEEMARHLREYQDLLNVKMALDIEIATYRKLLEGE
structure (smiles),measurement,setting,value
"CC(C)C[C@@H]1NC(=O)[C@H](Cc2ccc3ccccc3c2)NC(=O)[C@H](CCCNC(=N)N)NC(=O)[C@H](Cc2ccc3ccccc3c2)NC(=O)[C@H](CO)NC1=O [c2, cyclo-((2-Nal)-Leu-Ser-(2-Nal)-Arg)] (cyclo([2Nal]LS[2Nal]R))",clinical signs,[1]; 1 and 20 mg/kg,did not have an adverse effect
same,Clinical observations,"[1]; Day 1-7, Gr 2, 1 mg/kg",NC A
same,Clinical observations,"[1]; Day 1-7, Gr 3, 20 mg/kg",NC A
same,Clinical observations,"[1]; Day 1-7, Gr 5 recovery, 20 mg/kg",NC A
same,Clinical observations,"[1]; Day 8-14, Gr 2, 1 mg/kg",NC A
same,Clinical observations,"[1]; Day 8-14, Gr 3, 20 mg/kg",NC A
same,Clinical observations,"[1]; Day 8-14, Gr 5 recovery, 20 mg/kg",NC A
same,Clinical observations,"[1]; Day 15-21, Gr 2, 1 mg/kg",NC A
same,Clinical observations,"[1]; Day 15-21, Gr 3, 20 mg/kg",NC A
same,Clinical observations,"[1]; Day 15-21, Gr 5 recovery, 20 mg/kg",NC A
same,Clinical observations,"[1]; Day 22-28, Gr 2, 1 mg/kg",NC A
same,Clinical observations,"[1]; Day 22-28, Gr 3, 20 mg/kg",NC A
same,Clinical observations,"[1]; Day 22-28, Gr 5 recovery, 20 mg/kg",NC A
same,Clinical observations,"[1]; Day 29-35, Gr 5 recovery, 20 mg/kg",NC A
same,Clinical observations,"[1]; Day 36-43, Gr 5 recovery, 20 mg/kg",NC A
same,Urine bilirubin: animals Negative,"[2]; Day 29, Gr 2, 1 mg/kg",8/8
same,Urine blood: animals Negative,"[2]; Day 29, Gr 2, 1 mg/kg",8/8
same,Urine glucose: animals Negative,"[2]; Day 29, Gr 2, 1 mg/kg",8/8
same,Urine ketone: animals Small,"[2]; Day 29, Gr 2, 1 mg/kg",1/8
same,Urine ketone: animals Trace,"[2]; Day 29, Gr 2, 1 mg/kg",5/8
same,Urine leucocytes: animals Negative,"[2]; Day 29, Gr 2, 1 mg/kg",8/8
same,Urine nitrite: animals Negative,"[2]; Day 29, Gr 2, 1 mg/kg",8/8
same,Urine protein: animals 1+,"[2]; Day 29, Gr 2, 1 mg/kg",4/8
same,Urine protein: animals 2+,"[2]; Day 29, Gr 2, 1 mg/kg",2/8
same,Urine protein: animals Trace,"[2]; Day 29, Gr 2, 1 mg/kg",2/8
same,Urobilinogen: animals Normal,"[2]; Day 29, Gr 2, 1 mg/kg",8/8
same,Urine bilirubin: animals Negative,"[2]; Day 29, Gr 3, 20 mg/kg",9/9
same,Urine blood: animals Negative,"[2]; Day 29, Gr 3, 20 mg/kg",9/9
same,Urine glucose: animals Negative,"[2]; Day 29, Gr 3, 20 mg/kg",9/9
same,Urine ketone: animals Negative,"[2]; Day 29, Gr 3, 20 mg/kg",1/9
same,Urine ketone: animals Small,"[2]; Day 29, Gr 3, 20 mg/kg",4/9
same,Urine ketone: animals Trace,"[2]; Day 29, Gr 3, 20 mg/kg",4/9
same,Urine leucocytes: animals Negative,"[2]; Day 29, Gr 3, 20 mg/kg",9/9
same,Urine nitrite: animals Negative,"[2]; Day 29, Gr 3, 20 mg/kg",9/9
same,Urine protein: animals 1+,"[2]; Day 29, Gr 3, 20 mg/kg",7/9
same,Urine protein: animals 2+,"[2]; Day 29, Gr 3, 20 mg/kg",2/9
same,Urobilinogen: animals Normal,"[2]; Day 29, Gr 3, 20 mg/kg",9/9
same,urine parameters,[2]; Day 29 and Day 43,no obvious effects
same,Urine bilirubin: animals Negative,[2]; [5],5/5
same,Urine blood: animals Negative,[2]; [5],3/5
same,Urine blood: animals Small,[2]; [5],1/5
same,Urine blood: animals Trace,[2]; [5],1/5
same,Urine glucose: animals Negative,[2]; [5],5/5
same,Urine ketone: animals Negative,[2]; [5],2/5
same,Urine ketone: animals Trace,[2]; [5],3/5
same,Urine leucocytes: animals Negative,[2]; [5],5/5
same,Urine nitrite: animals Negative,[2]; [5],5/5
same,Urine protein: animals 1+,[2]; [5],2/5
same,Urine protein: animals 2+,[2]; [5],1/5
same,Urine protein: animals Negative,[2]; [5],2/5
same,Urobilinogen: animals Normal,[2]; [5],5/5
same,IC50,[3],56.5 µM
same,c2 detection in cells,[4],detected in all cell lines
